Measured values published in patent US20250136581A1, “SUBSTITUTED TRIAZOLE DERIVATIVE, PREPARATION METHOD THEREFOR, PHARMACEUTICAL COMPOSITION THEREOF, AND USE THEREOF” (SHANGHAI SIMR BIOTECHNOLOGY CO., LTD., priority 2021, published 2025).

Assays:
[1] = molecular target: α5-GABAA receptor (α5, β3, γ2 subunits) (Homo sapiens (Human), UniProt P18507+P31644); assay: Whole cell patch clamp, inverse agonist efficacy in HEK293 cells expressing α5-GABAA receptor; assay type: cell-based; settings: HEK293, drug 100 nM, GABA 0.05 μM, −60 mV; read-out: Compound inverse agonist efficacy %
In short: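 Compounds screened at 100 nM against current induced by 0.05 μM GABA in monoclonal HEK293 cells stably expressing α5β3γ2 GABAA receptors. Recording by whole-cell voltage clamp (−60 mV, pH 7.4 bath, CsCl pipette); efficacy calculated from leak-corrected currents before and after drug.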

human α3β3γ2 receptors = human α3β3γ2 receptors (Homo sapiens (Human), UniProt P18507+P34903); assay: 3H-flunitrazepam competition binding, human α3β3γ2 GABAA receptor; settings: HEK293 cell membranes, 1 nM 3H-flunitrazepam; read-out: Ki α3
In short: (§1)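 Radioligand displacement of 1 nM 3H-flunitrazepam from membranes of HEK293 lines stably expressing the human subtypes, 1 h at room temperature, compound in 8-point 4-fold series. Bound label on GF/C filters counted by scintillation; Ki derived from fitted IC50, with flumazenil as low control.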

human α2β3γ2 receptors = human α2β3γ2 receptors (Homo sapiens (Human), UniProt P18507+P47869); assay: 3H-flunitrazepam competition binding, human α2β3γ2 GABAA receptor; settings: HEK293 cell membranes, 1 nM 3H-flunitrazepam; read-out: Ki α2
In short: as §1

inhibition at 0.1 µM [1]: 42.5%
Ki (human α3β3γ2 receptors): 14.1 nM
Ki (human α2β3γ2 receptors): 15.9 nM
Compound: Cc1nnn(-c2ccc(C(F)F)cc2)c1COc1ccc(N2CC(=O)NC(C)C2)nn1 (stereo not drawn) [Example 6, 4-(6-((1-(4-(Difluoromethyl)phenyl)-4-methyl-1H-1,2,3-triazol-5-yl)methoxy)pyridazin-3-yl)-6-methylpiperazin-2-one]
